The values that follow come from patent US10925876B2, “Methods for using triazolo-pyrazinyl soluble guanylate cyclase activators in fibrotic disorders” (Merck Sharp & Dohme Corp., priority 2016, dated 2021).

The target of the experiment is T1, sGC α1/β1 heterodimer (Homo sapiens, UniProt Q02108+Q02153).
T1 construct: expressed in transfected cells
T1 sequence (Q02108 1-690): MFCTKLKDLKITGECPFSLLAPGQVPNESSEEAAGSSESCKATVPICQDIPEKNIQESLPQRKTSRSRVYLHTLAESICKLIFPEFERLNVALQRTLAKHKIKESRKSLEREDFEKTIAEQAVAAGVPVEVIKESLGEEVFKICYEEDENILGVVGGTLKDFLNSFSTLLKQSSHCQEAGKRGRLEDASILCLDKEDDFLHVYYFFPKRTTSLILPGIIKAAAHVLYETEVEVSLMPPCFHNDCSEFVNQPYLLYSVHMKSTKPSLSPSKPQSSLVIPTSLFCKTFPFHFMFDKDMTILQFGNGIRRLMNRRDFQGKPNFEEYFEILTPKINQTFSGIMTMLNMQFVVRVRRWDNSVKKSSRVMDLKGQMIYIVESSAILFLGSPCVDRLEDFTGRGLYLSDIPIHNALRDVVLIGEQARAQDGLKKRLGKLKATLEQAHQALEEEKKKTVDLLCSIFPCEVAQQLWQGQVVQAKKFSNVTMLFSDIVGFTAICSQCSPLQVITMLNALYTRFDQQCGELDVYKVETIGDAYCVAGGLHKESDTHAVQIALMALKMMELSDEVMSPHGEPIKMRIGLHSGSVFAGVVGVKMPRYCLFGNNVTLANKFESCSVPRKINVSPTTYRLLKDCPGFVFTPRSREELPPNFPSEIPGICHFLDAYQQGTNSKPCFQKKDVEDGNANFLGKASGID
T1 sequence (Q02153 1-619): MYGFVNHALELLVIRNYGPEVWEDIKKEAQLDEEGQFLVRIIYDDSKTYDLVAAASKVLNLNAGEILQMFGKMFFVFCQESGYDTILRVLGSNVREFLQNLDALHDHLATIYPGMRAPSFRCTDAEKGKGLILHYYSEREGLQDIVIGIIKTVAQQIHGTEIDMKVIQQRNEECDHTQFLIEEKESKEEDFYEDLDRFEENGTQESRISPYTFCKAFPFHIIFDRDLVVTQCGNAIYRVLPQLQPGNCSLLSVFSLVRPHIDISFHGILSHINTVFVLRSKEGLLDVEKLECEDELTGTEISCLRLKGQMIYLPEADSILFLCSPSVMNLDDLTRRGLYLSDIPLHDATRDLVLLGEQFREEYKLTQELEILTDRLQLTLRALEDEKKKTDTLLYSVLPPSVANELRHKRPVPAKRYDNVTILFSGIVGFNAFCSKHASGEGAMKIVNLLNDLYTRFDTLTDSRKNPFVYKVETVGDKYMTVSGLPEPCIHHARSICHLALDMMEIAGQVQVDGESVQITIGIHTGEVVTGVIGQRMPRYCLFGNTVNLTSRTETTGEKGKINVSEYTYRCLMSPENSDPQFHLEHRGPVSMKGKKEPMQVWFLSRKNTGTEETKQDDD
The experiment in a line: Cell-Based sGC Functional Assay (CASA Assay), cGMP generation in CHO-K1/sGC cells.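 Further: reference Compound A is a published heme-dependent sGC activator.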 To be noted: maximum cGMP production of Compound A set to 100% activation, read-out: % Act. (percent activation relative to Compound A). Put shortly: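 CHO-K1 cells stably expressing human sGC α1/β1, 4×10^5/mL in EBSS with 5 mM MgCl2, 10 mM HEPES, 0.05% BSA, 0.5 mM IBMX, 2.5% DMSO; compounds 1 h at 37 °C ± 1 μM DETA-NO. cGMP by HTRF, expressed as % of reference Compound A maximum; IP and max fold induction from 4P fit.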
On to `CC1(c2ccc(O)cn2)C(=O)Nc2nc(-c3cn4ncnc4c(CCCC(F)(F)F)n3)nc(N)c21` (centres unmarked) [Example 111A, 4-amino-5-(5-hydroxypyridin-2-yl)-5-methyl-2-(8-(4,4,4-trifluorobutyl)-[1,2,4]triazolo[1,5-a]pyrazin-6-yl)-5H-pyrrolo[2,3-d]pyrimidin-6(7H)-one], for which the Emax came out at 75%.

Turning to `C[C@@]1(c2ccc(F)cc2)C(=O)Nc2nc(-c3cn4ncnc4c(Cc4cccc(O)c4)n3)nc(N)c21` [Example 113B, (S)-4-amino-5-(4-fluorophenyl)-2-(8-(3-hydroxybenzyl)-[1,2,4]triazolo[1,5-a]pyrazin-6-yl)-5-methyl-5H-pyrrolo[2,3-d]pyrimidin-6(7H)-one], the Emax amounted to 171%.

Regarding `CCCCc1nc(-c2nc(N)c3c(n2)NC(=O)C3(c2ccccn2)C2CC2)cn2ncnc12` (centres unmarked) [Example 116A, 4-amino-2-(8-butyl-[1,2,4]triazolo[1,5-a]pyrazin-6-yl)-5-cyclopropyl-5-(pyridin-2-yl)-5H-pyrrolo[2,3-d]pyrimidin-6(7H)-one], the Emax amounted to 85%.

Turning to `N#Cc1ccc(C2(C3CC3)C(=O)Nc3nc(-c4cn5ncnc5c(CCCC(F)(F)F)n4)nc(N)c32)nc1` (centres unmarked) [Example 117A, 6-(4-Amino-5-cyclopropyl-6-oxo-2-(8-(4,4,4-trifluorobutyl)-[1,2,4]triazolo[1,5-a]pyrazin-6-yl)-6,7-dihydro-5H-pyrrolo[2,3-d]pyrimidin-5-yl)nicotinonitrile], the Emax was found to be 140%.

With `N#Cc1ccc(C2(C3CC3)C(=O)Nc3nc(-c4cn5ncnc5c(CCC(F)(F)C(F)(F)F)n4)nc(N)c32)nc1` (centres unmarked) [Example 118A, 6-(4-Amino-5-cyclopropyl-6-oxo-2-(8-(3,3,4,4,4-pentafluorobutyl)-[1,2,4]triazolo[1,5-a]pyrazin-6-yl)-6,7-dihydro-5H-pyrrolo[2,3-d]pyrimidin-5-yl)nicotinonitrile], the Emax turned out to be 72%.

For `O=C1Nc2nc(-c3cn4ncnc4c(CCC(F)(F)C(F)(F)F)n3)nc(O)c2C1(c1ccc(F)c(F)c1)C1CC1` (centres unmarked) [Example 123A, 5-cyclopropyl-5-(3,4-difluorophenyl)-4-hydroxy-2-(8-(3,3,4,4,4-pentafluorobutyl)-[1,2,4]triazolo[1,5-a]pyrazin-6-yl)-5H-pyrrolo[2,3-b]pyrimidin-6(7H)-one], the Emax was 78%.

As for `O=C1Nc2nc(-c3cn4ncnc4c(CCC(F)(F)C(F)(F)F)n3)nc(O)c2C1(c1cncc(F)c1)C1CC1` (centres unmarked) [Example 124B, 5-cyclopropyl-5-(5-fluoropyridin-3-yl)-4-hydroxy-2-(8-(3,3,4,4,4-pentafluorobutyl)-[1,2,4]triazolo[1,5-a]pyrazin-6-yl)-5H-pyrrolo[2,3-d]pyrimidin-6(7H)-one], the Emax stood at 88%.

Turning to `CC1(c2ccc(Cl)cc2)C(=O)Nc2nc(-c3cn4ncnc4c(CCC(F)(F)C(F)(F)F)n3)nc(O)c21` (centres unmarked) [Example 126A, 5-(4-chlorophenyl)-4-hydroxy-5-methyl-2-(8-(3,3,4,4,4-pentafluorobutyl)-[1,2,4]triazolo[1,5-a]pyrazin-6-yl)-5H-pyrrolo[2,3-d]pyrimidin-6(7H)-one], the Emax amounted to 102%.

`CC1(c2ccccn2)C(=O)Nc2nc(-c3cn4ncnc4c(CCC(F)(F)C(F)(F)F)n3)nc(O)c21` (centres unmarked) [Example 127B, 4-hydroxy-5-methyl-2-(8-(3,3,4,4,4-pentafluorobutyl)-[1,2,4]triazolo[1,5-a]pyrazin-6-yl)-5-(pyridin-2-yl)-5H-pyrrolo[2,3-d]pyrimidin-6(7H)-one]: the Emax was 129%.

For `CC1(c2ccccc2)C(=O)Nc2nc(-c3cn4ncnc4c(CCC(F)(F)C(F)(F)F)n3)nc(O)c21` (centres unmarked) [Example 128B, 4-hydroxy-5-methyl-2-(8-(3,3,4,4,4-pentafluorobutyl)-[1,2,4]triazolo[1,5-a]pyrazin-6-yl)-5-phenyl-5H-pyrrolo[2,3-d]pyrimidin-6(7H)-one], the Emax is 106%.

For `CC1(c2cccc(F)c2)C(=O)Nc2nc(-c3cn4ncnc4c(CCC(F)(F)C(F)(F)F)n3)nc(O)c21` (centres unmarked) [Example 129B, 5-(3-fluorophenyl)-4-hydroxy-5-methyl-2-(8-(3,3,4,4,4-pentafluorobutyl)-[1,2,4]triazolo[1,5-a]pyrazin-6-yl)-5,7-dihydro-6H-pyrrolo[2,3-d]pyrimidin-6-one], the Emax was 66%.

On to `Cc1ccc(C2(C)C(=O)Nc3nc(-c4cn5ncnc5c(CCC(F)(F)C(F)(F)F)n4)nc(O)c32)nc1` (centres unmarked) [Example 130B, 4-hydroxy-5-methyl-5-(5-methylpyridin-2-yl)-2-(8-(3,3,4,4,4-pentafluorobutyl)-[1,2,4]triazolo[1,5-a]pyrazin-6-yl)-5H-pyrrolo[2,3-d]pyrimidin-6(7H)-one], for which the Emax was determined as 109%.

Turning to `CC1(c2ccc(C#N)cn2)C(=O)Nc2nc(-c3cn4ncnc4c(CCC(F)(F)C(F)(F)F)n3)nc(O)c21` (centres unmarked) [Example 131A, 6-(4-hydroxy-5-methyl-6-oxo-2-(8-(3,3,4,4,4-pentafluorobutyl)-[1,2,4]triazolo[1,5-a]pyrazin-6-yl)-6,7-dihydro-5H-pyrrolo[2,3-d]pyrimidin-5-yl)nicotinonitrile], the Emax amounted to 99%.

With `Cc1nc2c(CCC(F)(F)C(F)(F)F)nc(-c3nc(O)c4c(n3)NC(=O)[C@@]4(C)c3ccc(F)cc3)cn2n1` [Example 133B, (S)-5-(4-fluorophenyl)-4-hydroxy-5-methyl-2-(2-methyl-8-(3,3,4,4,4-pentafluorobutyl)-[1,2,4]triazolo[1,5-a]pyrazin-6-yl)-5H-pyrrolo[2,3-d]pyrimidin-6(7H)-one], the Emax was 87%.

As to `CC1(c2ccc(C(F)(F)F)cc2)C(=O)Nc2nc(-c3cn4ncnc4c(CCCC(F)(F)F)n3)nc(O)c21` (centres unmarked) [Example 137B, 4-hydroxy-5-methyl-2-(8-(4,4,4-trifluorobutyl)-[1,2,4]triazolo[1,5-a]pyrazin-6-yl)-5-(4-(trifluoromethyl)phenyl)-5H-pyrrolo[2,3-d]pyrimidin-6(7H)-one], the Emax came to 102%.

For the molecule `O=C1Nc2nc(-c3cn4ncnc4c(CCCC(F)(F)F)n3)nc(O)c2C1(c1ccc(F)cc1)C1CC1` (centres unmarked) [Example 139B, 5-cyclopropyl-5-(4-fluorophenyl)-4-hydroxy-2-(8-(4,4,4-trifluorobutyl)-[1,2,4]triazolo[1,5-a]pyrazin-6-yl)-5H-pyrrolo[2,3-d]pyrimidin-6(7H)-one], the Emax was found to be 169%.

`O=C1Nc2nc(-c3cn4ncnc4c(CCCC(F)(F)F)n3)nc(O)c2C1(c1ccc(C(F)(F)F)cc1)C1CC1` (centres unmarked) [Example 144A, 5-cyclopropyl-4-hydroxy-2-(8-(4,4,4-trifluorobutyl)-[1,2,4]triazolo[1,5-a]pyrazin-6-yl)-5-(4-(trifluoromethyl)phenyl)-5H-pyrrolo[2,3-d]pyrimidin-6(7H)-one]: the Emax amounted to 87%.

With `CC1(c2ccccn2)C(=O)Nc2nc(-c3cn4ncnc4c(CCCC(F)(F)F)n3)nc(O)c21` (centres unmarked) [Example 145B, 4-hydroxy-5-methyl-5-(pyridin-2-yl)-2-(8-(4,4,4-trifluorobutyl)-[1,2,4]triazolo[1,5-a]pyrazin-6-yl)-5H-pyrrolo[2,3-d]pyrimidin-6(7H)-one], the Emax stood at 64%.

`CC1(c2ccc(F)c(Cl)c2)C(=O)Nc2nc(-c3cn4ncnc4c(CCCC(F)(F)F)n3)nc(O)c21` (centres unmarked) [Example 147B, 5-(3-chloro-4-fluorophenyl)-4-hydroxy-5-methyl-2-(8-(4,4,4-trifluorobutyl)-[1,2,4]triazolo[1,5-a]pyrazin-6-yl)-5,7-dihydro-6H-pyrrolo[2,3-d]pyrimidin-6-one]: the Emax worked out at 94%.

`COc1ccc(C2(C)C(=O)Nc3nc(-c4cn5ncnc5c(CCCC(F)(F)F)n4)nc(O)c32)nc1` (centres unmarked) [Example 148A, 4-hydroxy-5-(5-methoxypyridin-2-yl)-5-methyl-2-(8-(4,4,4-trifluorobutyl)-[1,2,4]triazolo[1,5-a]pyrazin-6-yl)-5H-pyrrolo[2,3-d]pyrimidin-6(7H)-one]: the Emax turned out to be 96%.
